Laboratory results from patent publication US20180147134A1, “ANTI-CELL SENESCENCE COSMETIC COMPOSITION, USE OF CASEARIA SYLVESTRIS AND/OR HIMENAEA COURBARIL, METHOD OF PREVENTING CELL SENESCENCE AND A METHOD FOR MODULATING THE EXPRESSION OF B-GALACTOSIDASE, P16, P21 AND/OR IL-8” (Natura Cosméticos S.A., priority 2016, published 2018).

Tests used:
Assay type in all cases: cell-based
[1] = tested on: inflammatory cytokine IL-8; assay: in vitro model of induced cell senescence: expression of IL-8; conditions: UVA + agent
From the text: (§1) An in vitro model of induced early cell aging (cell senescence) was developed and used to evaluate whether certain cosmetic ingredients can protect or delay molecular mechanisms that lead to aging of skin cells or to loss of functional competence (loss of cellular vitality).

[2] = tested on: cell senescence-associated lysosomal b-galactosidase; assay: in vitro model of induced early cell aging (cell senescence), UVA/UVB: senescence-associated lysosomal b-galactosidase (flow cytometry and cytochemical marking); conditions: in the presence of agent
From the text: as §1

transcription factor p16 = assay: in vitro model of induced cell senescence: expression of p16; conditions: protection of the cells with agent
From the text: as §1

transcription factor p21 = assay: in vitro model of induced cell senescence: expression of p21; conditions: protection of the cells with agent
From the text: as §1

SMILES | expression of IL-8 [1] | appearance of b-galactosidase marking induced by UV [2] | induced expression of p16 (transcription factor p16) | induced expression of p21 (transcription factor p21)
O=C(O)/C=C/c1ccc(O)c(O)c1 [caffeic acid] | reduced | reduced | reduces | –
Cc1c(C)c2c(c(C)c1O)CCC(C)(C(=O)O)O2 (stereo not shown) [trolox] | reduced | reduced | reduces | reduces
